Assay results: PubChem BioAssay (NCI)
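Briefly, cells in 96-well plates were exposed to five compound concentrations for 48 h, and endpoints were estimated by linear interpolation. Definition used: TGI = concentration required for complete inhibition of growth.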

How the values were obtained:
Experiment in all cases: NCI anticancer screen, dose series, 48 h
UO-31 renal = test system: UO-31 renal
SK-MEL-28 melanoma = test system: SK-MEL-28 melanoma
SF-268 CNS = test system: SF-268 CNS
786-0 renal = test system: 786-0 renal
U251 CNS = test system: U251 CNS
SNB-78 CNS = test system: SNB-78 CNS
SK-MEL-5 melanoma = test system: SK-MEL-5 melanoma
SW-620 colon = test system: SW-620 colon
RXF 393 renal = test system: RXF 393 renal
MOLT-4 leukemia = test system: MOLT-4 leukemia
UACC-257 melanoma = test system: UACC-257 melanoma
SNB-75 CNS = test system: SNB-75 CNS
KM20L2 colon = test system: KM20L2 colon
NCI-H23 lung = test system: NCI-H23 lung
LOX IMVI melanoma = test system: LOX IMVI melanoma
HCT-15 colon = test system: HCT-15 colon
NCI-H460 lung = test system: NCI-H460 lung
NCI-H226 lung = test system: NCI-H226 lung
HOP-62 NSCLC = test system: HOP-62 NSCLC
NCI-H522 lung = test system: NCI-H522 lung
IGROV1 ovarian = test system: IGROV1 ovarian
K-562 leukemia = test system: K-562 leukemia
M19-MEL melanoma = test system: M19-MEL melanoma
OVCAR-5 ovarian = test system: OVCAR-5 ovarian
M14 melanoma = test system: M14 melanoma
OVCAR-8 ovarian = test system: OVCAR-8 ovarian
DMS 114 small cell lung = test system: DMS 114 small cell lung
HOP-18 NSCLC = test system: HOP-18 NSCLC
OVCAR-3 ovarian = test system: OVCAR-3 ovarian
SK-OV-3 ovarian = test system: SK-OV-3 ovarian
COLO 205 colon = test system: COLO 205 colon
LXFL 529 NSCLC = test system: LXFL 529 NSCLC
A498 renal = test system: A498 renal
ACHN renal = test system: ACHN renal
TK-10 renal = test system: TK-10 renal
HCC-2998 colon = test system: HCC-2998 colon
HL-60(TB) leukemia = test system: HL-60(TB) leukemia
SK-MEL-2 melanoma = test system: SK-MEL-2 melanoma
SN12C renal = test system: SN12C renal
RPMI-8226 leukemia = test system: RPMI-8226 leukemia
EKVX NSCLC = test system: EKVX NSCLC
UACC-62 melanoma = test system: UACC-62 melanoma
KM12 colon = test system: KM12 colon
MALME-3M melanoma = test system: MALME-3M melanoma
SF-539 CNS = test system: SF-539 CNS
CCRF-CEM leukemia = test system: CCRF-CEM leukemia
A549 NSCLC = test system: A549 NSCLC
SF-295 CNS = test system: SF-295 CNS
OVCAR-4 ovarian = test system: OVCAR-4 ovarian
DMS 273 small cell lung = test system: DMS 273 small cell lung
CAKI-1 renal = test system: CAKI-1 renal
SNB-19 CNS = test system: SNB-19 CNS
HCT-116 colon = test system: HCT-116 colon
SR leukemia = test system: SR leukemia
XF 498 CNS = test system: XF 498 CNS
HT29 colon = test system: HT29 colon
RXF-631 renal = test system: RXF-631 renal

Measured: TGI

N#Cc1ccc(OCCSCCCCCCCCCCSCCOc2ccc(C#N)cc2)cc1
not listed: OVCAR-4 ovarian | DMS 273 small cell lung | CAKI-1 renal | SNB-19 CNS | HCT-116 colon | SR leukemia | XF 498 CNS | HT29 colon | RXF-631 renal
> 100 µM: all other assays above

CN/N=C(\C)C(CN1CCCCC1)C(C1=C(O)c2ccccc2OC1)c1ccccc1 (stereo not drawn)
not listed: HOP-18 NSCLC | A498 renal
> 100 µM: all other assays above
